The record followed here is US11220668B2, “Method for reducing the trisulfide level in proteins” (Merck Patent GmbH, priority 2016, dated 2022).

The structures appear in SMILES notation.

In this assay the test system is Recombinant CHO cells expressing an IgG1. In words: Fed-batch process with SSC feed; relative quantification of trisulfide linked peptides in IgG by LC-MS peptide mapping. The conditions noted are these: for mean reduction of trisulfide, LC-HC linked peptides: SSC feed (15 mM in main feed) compared to control condition with cysteine in separate feed; for mean reduction of trisulfide, linkage between cysteine 259 and cysteine 319 in the heavy chain: SSC feed compared to control condition with cysteine in separate feed. In kind it is cell-based. The protocol: Recombinant CHO cells expressing an IgG1 were grown in fully chemically defined basal media (Cellvento® CHO 220) containing 1.5 mM cysteine. At days 3, 5, 7, 10, 14; feed(s) containing either cysteine or S-sulfocysteine were added.
For the control condition, the main feed included vitamins, trace elements and amino acid except cysteine because of the low stability of this amino acid. 150 mM of cysteine was dissolved in a separate feed at pH 11. The main feed was added at 3%, 6%, 6%, 6% and 6% (v/v) whereas cysteine was added at 0.3%, 0.6%, 0.6%, 0.6% and 0.6% on day 3, 5, 7, 10 and 14, respectively.
For the SSC condition, the main feed included the same vitamins, trace elements and amino acids and was further supplemented with 15 mM of S-sulfocysteine di-sodium salt. The main feed was added 3%, 6%, 6%, 6% and 6% (v/v) day 3, 5, 7, 10 and 14 respectively, resulting in the same amount of cysteine source when compared to the control condition. Glucose was monitored on a daily basis for both conditions and adjusted to 6 g/L using a 400 g/L solution.
The process was performed in 1.2 L bioreactors at 37° C., pH 7.0, 50% dissolved oxygen, agitation 140 rpm.
Samples were taken from the bioreactors for the trisulfide analysis on day 13 and day 18. After sampling, cell culture supernatant was centrifuged 5 min at 1500 rpm, the IgG concentration was quantified using an automatic turbidometric method (Cedex bioHT) and frozen for further processing.
IgG were purified from the frozen samples using protein A binding (Phytips method) and were eluted in 200 mM NAH2PO4; 140 mM NaCl and 96 mM Tris HCl and quantified again.
First, the free cysteines in the samples were alkylated by addition of N-ethylmaleiimide (10 mM solution in 0.1 M Na acetate buffer pH 5.0) for 30 min in the dark.
For digestion with Lys-C, 55 μL digestion buffer (8 M urea, 0.1 M Tris, pH 7) and 15 μL Lys-C enzyme (Promega, V1671) were added and the samples were incubated for 4 hours at 37° C. Subsequently, the samples were diluted to 1 M urea by addition of […] and were digested by addition of 12 μL trypsin over night at 37° C. The final antibody concentration was 50 mg/L. For the analysis of the disulfide and trisulfide bonds, the sample was treated with 10% formic acid (4.4 μL) to stop the digestion and analyzed by LC-MS.
The peptide mixture obtained was injected and separated using reversed phase HPLC (RSLC3000 nano LC, Thermo Scientific Dionex, Idstein, Germany). A nanoLC column (Acquity UPLC M-Class HSS T3, 1.8 μm, 75 μm×150 mm, Waters) with a cartridge (PM100, C18, 5 μm, 0.3×5 mm, Thermo Scientific Dionex, Idstein, Germany) was used for preconcentration and separation of the sample. Blank runs and column wash runs were performed within consecutive sample runs. […]

On to `N[C@@H](CSS(=O)(=O)[O-])C(=O)[O-].[Na+].[Na+]` [SSC, S-sulfocysteine di-sodium salt], for which, where the note is “day 13 of fed-batch”, the “mean reduction of trisulfide, LC-HC linked peptides” value was 93.3%; the “mean reduction of trisulfide, linkage between cysteine 259 and cysteine 319 in the heavy chain” value is 46.7%. In addition, for the setting “day 18 of fed-batch”, the “mean reduction of trisulfide, LC-HC linked peptides” value is given as 92.4%; the “mean reduction of trisulfide, linkage between cysteine 259 and cysteine 319 in the heavy chain” value is 25.9%.
